# Read-outs that look alike come from different tables or passages of the source.
# What was measured:
# Assay in all cases: Kinase inhibition profile (HTRF / ADP Glo kinase assay)
# Assay type in all cases: biochemical
# ABL1 = ABL1 (Homo sapiens (Human), UniProt P00519)
# Experimental: (§1) HTRF kinase assay: 2×ATP and substrate solution as well as 2× kinase and metal solution were prepared with assay buffer. 25 nL of compound was transferred to 384-well assay plate by Echo 655. After centrifugation, 2.5 μL of 2× kinase/metal ion solution was added to the 384-well assay plate followed by incubation at 25° C. for 10 min. 2.5 μL of 2× substrate and ATP solution was added to the wells followed by incubation at 25° C. for 60 min. 2× XL665 and antibody solution was prepared with assay buffer. 5 μL of kinase detection reagent was added to the wells followed by incubation at 25° C. for 60 min. Fluorescence signals at 620 nm (Cryptate) and 665 nm (XL665) were read with a microtiter plate reader. ADP Glo kinase assay: 2×ATP and substrate solution as well as 2× kinase and metal solution were prepared with assay buffer. 20 nL of compound was transferred to 384-well assay plate by Echo 655. 2 μL of 2× kinase/metal ion solution was added followed by incubation at 25° C. for 10 min in the 384-well assay plate. 2 μL of 2× substrate and ATP solution was added to the wells followed by incubation at 25° C. for 60 min. 4 μL of ADP Glo reagent was added to the wells followed by incubation at 25° C. for 40 min. 8 μL of kinase test reagent was added to the wells followed by incubation at 25° C. for 40 min. The luminescence signals were recorded on a microtiter plate reader. Data analysis: the reaction control (0.5% DMSO) reading was set to 0% inhibition, and the background (10 μM positive control) reading was set to 100% inhibition, then the percent inhibition for each test solution was calculated and the results are shown in Table 2 and FIG. 3.
# ALK 4 = ALK 4 (Homo sapiens (Human), UniProt P36896)
# Experimental: as §1
# BRAF = BRAF (Homo sapiens (Human), UniProt P15056)
# Experimental: as §1
# BRSK2 = BRSK2 (Homo sapiens (Human), UniProt Q8IWQ3)
# Experimental: as §1
# CDK5/p35NCK = CDK5/p35NCK (Homo sapiens (Human), UniProt Q00535)
# Experimental: as §1
# CHK1 = CHK1 (Homo sapiens (Human), UniProt O14757)
# Experimental: as §1
# CK1α = CK1α (Homo sapiens (Human), UniProt P48729)
# Experimental: as §1
# CLK1 = CLK1 (Homo sapiens (Human), UniProt P49759)
# Experimental: as §1
# DDR1 = DDR1 (Homo sapiens (Human), UniProt Q08345); conditions: for inhibition at 1 µM: 1 uM Compound C1, DDR1
# Experimental: as §1
# EPHB4 = EPHB4 (Homo sapiens (Human), UniProt P54760)
# Experimental: as §1
# Erk2 = Erk2 (Homo sapiens (Human), UniProt P28482)
# Experimental: as §1
# HPK1 = HPK1 (Homo sapiens (Human), UniProt Q92918)
# Experimental: as §1
# IKKα = IKKα (Homo sapiens (Human), UniProt O15111)
# Experimental: as §1
# ITK = ITK (Homo sapiens (Human), UniProt Q08881)
# Experimental: as §1
# JNK1 = JNK1 (Homo sapiens (Human), UniProt P45983)
# Experimental: as §1
# NEK1 = NEK1 (Homo sapiens (Human), UniProt Q96PY6)
# Experimental: as §1
# NEK2 = NEK2 (Homo sapiens (Human), UniProt P51955)
# Experimental: as §1
# PDGFRα = PDGFRα (Homo sapiens (Human), UniProt P16234)
# Experimental: as §1
# PIM1 = PIM1 (Homo sapiens (Human), UniProt P11309)
# Experimental: as §1
# SGK = SGK (Homo sapiens (Human), UniProt O00141)
# Experimental: as §1
# TSSK1 = TSSK1 (Homo sapiens (Human), UniProt Q9BXA7)
# Experimental: as §1
# [1] = 1 uM Compound C1, read-out: % Inhibition (First measurement)
# [2] = 1 uM Compound C1, read-out: % Inhibition (Second measurement)
# [3] = 1 uM Compound C1, read-out: Average inhibition (%)
# Chain of Erk2 (P28482 whole entry, species assumed): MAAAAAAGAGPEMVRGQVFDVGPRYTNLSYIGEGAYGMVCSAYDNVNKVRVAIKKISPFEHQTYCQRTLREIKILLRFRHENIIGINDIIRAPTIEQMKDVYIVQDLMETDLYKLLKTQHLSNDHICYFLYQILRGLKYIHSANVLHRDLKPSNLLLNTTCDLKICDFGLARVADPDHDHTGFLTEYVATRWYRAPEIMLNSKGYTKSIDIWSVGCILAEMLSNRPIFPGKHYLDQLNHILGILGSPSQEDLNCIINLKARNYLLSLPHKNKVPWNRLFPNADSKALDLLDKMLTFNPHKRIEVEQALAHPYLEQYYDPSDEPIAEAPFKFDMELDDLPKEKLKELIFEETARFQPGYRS
# Chain of JNK1 (P45983 whole entry, species assumed): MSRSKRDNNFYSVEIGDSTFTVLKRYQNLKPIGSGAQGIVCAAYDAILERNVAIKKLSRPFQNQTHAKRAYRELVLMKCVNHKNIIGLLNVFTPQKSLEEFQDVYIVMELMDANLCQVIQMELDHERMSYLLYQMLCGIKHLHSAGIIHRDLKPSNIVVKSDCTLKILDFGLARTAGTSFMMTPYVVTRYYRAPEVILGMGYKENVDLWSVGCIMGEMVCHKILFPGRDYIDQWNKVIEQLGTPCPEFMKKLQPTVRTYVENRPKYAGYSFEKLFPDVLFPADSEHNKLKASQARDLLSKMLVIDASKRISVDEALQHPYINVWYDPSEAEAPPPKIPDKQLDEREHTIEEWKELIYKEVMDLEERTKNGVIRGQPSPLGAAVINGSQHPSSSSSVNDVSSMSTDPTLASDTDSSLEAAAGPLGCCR
# Chain of IKKα (O15111 whole entry, species assumed): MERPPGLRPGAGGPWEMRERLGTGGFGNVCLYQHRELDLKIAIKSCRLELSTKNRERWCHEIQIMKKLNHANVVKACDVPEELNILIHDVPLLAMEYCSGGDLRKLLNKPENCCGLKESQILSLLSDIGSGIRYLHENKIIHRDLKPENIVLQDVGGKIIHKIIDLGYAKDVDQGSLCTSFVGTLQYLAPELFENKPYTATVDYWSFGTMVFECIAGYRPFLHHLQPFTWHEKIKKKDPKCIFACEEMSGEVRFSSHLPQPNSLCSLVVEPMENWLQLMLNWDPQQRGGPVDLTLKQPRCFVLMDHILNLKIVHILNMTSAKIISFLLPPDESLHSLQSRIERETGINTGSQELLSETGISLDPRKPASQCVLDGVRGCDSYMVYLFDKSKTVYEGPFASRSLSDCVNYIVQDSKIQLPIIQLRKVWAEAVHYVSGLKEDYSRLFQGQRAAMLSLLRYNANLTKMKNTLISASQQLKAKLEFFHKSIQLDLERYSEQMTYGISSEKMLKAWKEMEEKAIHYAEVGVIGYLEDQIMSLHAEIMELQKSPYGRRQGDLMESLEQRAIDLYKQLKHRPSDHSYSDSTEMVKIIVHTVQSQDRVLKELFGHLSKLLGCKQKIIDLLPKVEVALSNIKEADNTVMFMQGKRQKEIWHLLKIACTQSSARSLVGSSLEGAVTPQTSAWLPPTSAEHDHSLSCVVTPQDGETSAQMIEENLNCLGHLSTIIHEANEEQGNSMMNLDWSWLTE
# Chain of CLK1 (P49759 whole entry): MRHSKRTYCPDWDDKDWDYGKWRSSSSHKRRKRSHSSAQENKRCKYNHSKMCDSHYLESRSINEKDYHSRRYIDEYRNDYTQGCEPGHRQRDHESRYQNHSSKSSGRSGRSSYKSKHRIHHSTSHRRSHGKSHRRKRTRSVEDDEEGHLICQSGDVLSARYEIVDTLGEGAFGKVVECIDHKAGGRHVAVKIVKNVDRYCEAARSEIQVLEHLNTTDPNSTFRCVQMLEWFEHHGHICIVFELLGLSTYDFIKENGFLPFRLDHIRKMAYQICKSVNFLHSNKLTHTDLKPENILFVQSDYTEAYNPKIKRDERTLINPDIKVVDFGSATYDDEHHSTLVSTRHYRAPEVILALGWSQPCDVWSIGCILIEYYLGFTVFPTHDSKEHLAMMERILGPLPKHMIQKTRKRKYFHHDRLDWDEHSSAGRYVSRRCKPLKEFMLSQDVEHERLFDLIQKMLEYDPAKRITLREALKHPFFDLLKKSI
# Chain of CK1α (P48729 whole entry): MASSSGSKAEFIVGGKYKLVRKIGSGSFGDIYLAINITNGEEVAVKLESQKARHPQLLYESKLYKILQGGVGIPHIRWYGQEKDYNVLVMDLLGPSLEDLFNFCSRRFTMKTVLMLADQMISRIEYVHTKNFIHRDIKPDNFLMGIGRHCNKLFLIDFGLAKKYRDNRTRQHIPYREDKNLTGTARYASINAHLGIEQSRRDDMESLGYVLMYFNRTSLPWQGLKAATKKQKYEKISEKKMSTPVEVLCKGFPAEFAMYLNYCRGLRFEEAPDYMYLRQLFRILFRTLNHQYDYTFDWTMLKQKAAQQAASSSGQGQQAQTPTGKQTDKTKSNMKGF
# Chain of ITK (Q08881 whole entry, species assumed): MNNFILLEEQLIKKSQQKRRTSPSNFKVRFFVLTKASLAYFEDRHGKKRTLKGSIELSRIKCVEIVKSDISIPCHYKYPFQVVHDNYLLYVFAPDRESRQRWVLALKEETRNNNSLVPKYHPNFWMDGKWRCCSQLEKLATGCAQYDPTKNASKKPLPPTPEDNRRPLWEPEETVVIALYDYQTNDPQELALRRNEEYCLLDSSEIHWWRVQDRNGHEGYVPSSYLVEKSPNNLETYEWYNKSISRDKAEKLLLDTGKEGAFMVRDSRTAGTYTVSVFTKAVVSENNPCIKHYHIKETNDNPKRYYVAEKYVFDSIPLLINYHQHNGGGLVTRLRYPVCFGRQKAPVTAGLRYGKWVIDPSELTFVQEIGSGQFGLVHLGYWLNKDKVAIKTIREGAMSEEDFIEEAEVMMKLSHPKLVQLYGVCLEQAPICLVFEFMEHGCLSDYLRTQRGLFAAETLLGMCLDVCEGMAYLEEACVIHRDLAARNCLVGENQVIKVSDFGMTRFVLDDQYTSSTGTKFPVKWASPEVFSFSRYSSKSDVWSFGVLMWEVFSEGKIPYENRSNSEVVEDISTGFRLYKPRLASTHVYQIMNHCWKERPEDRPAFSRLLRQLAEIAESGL
# Chain of ABL1 (P00519 whole entry, species assumed): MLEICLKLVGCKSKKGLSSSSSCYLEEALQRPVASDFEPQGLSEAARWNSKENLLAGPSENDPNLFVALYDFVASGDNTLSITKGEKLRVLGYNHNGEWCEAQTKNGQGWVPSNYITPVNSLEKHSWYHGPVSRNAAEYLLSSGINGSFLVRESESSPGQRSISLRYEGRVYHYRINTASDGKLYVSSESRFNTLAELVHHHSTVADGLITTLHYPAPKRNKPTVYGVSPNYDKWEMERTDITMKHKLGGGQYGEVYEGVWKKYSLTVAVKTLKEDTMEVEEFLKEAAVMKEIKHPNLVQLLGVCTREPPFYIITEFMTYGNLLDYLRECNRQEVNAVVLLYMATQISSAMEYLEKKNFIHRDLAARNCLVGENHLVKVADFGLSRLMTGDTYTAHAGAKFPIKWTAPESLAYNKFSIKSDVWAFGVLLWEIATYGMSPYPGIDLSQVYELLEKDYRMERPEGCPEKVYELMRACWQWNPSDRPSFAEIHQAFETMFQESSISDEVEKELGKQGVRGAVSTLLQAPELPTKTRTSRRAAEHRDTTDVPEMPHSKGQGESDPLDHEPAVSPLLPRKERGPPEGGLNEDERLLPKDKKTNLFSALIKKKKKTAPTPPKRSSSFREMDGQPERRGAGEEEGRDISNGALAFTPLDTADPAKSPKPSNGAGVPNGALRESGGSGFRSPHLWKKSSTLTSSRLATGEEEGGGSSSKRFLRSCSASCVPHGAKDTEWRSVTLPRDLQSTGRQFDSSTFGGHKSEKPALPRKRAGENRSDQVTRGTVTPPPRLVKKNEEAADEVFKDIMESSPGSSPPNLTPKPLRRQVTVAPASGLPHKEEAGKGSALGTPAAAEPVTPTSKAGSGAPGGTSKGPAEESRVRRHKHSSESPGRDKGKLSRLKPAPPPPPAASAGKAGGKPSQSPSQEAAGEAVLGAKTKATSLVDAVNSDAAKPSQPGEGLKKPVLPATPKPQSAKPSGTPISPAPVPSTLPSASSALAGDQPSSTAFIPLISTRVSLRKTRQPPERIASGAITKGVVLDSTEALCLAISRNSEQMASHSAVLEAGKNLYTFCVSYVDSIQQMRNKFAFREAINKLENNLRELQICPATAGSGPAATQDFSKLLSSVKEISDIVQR
# Chain of DDR1 (Q08345 19-913): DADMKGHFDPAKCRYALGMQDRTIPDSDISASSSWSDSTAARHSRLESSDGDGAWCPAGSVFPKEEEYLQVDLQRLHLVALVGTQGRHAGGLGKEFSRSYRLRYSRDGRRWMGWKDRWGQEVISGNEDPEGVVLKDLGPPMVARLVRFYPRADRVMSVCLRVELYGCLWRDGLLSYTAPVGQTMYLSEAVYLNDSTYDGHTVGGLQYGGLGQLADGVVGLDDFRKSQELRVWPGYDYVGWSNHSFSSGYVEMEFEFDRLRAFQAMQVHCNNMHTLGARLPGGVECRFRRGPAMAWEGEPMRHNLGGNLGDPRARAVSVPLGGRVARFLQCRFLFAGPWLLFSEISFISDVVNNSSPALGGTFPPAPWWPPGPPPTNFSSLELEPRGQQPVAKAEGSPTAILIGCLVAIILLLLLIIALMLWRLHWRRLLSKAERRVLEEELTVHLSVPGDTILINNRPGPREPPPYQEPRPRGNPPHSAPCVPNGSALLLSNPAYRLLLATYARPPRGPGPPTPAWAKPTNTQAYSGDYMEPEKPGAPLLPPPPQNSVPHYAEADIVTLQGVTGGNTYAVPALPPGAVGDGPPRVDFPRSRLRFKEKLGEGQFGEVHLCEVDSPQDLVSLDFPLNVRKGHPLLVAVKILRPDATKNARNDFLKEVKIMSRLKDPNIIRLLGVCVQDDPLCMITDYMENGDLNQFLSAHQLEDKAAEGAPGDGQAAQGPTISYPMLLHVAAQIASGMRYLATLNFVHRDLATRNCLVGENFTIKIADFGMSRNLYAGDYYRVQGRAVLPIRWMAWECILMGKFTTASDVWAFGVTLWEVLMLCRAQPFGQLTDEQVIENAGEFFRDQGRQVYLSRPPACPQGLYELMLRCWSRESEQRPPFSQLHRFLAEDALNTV
structure (smiles),measurement,setting,value
"Cc1ccc(C(=O)Nc2ccccn2)cc1C#Cc1cnc2cc(C3=CCCCC3)cnn12 [Compound C1, 3-{2-[7-(cyclohex-1-en-1-yl)imidazo[1,2-b]pyridazin-3-yl]ethynyl}-4-methyl-N-(pyridin-2-yl)benzamide]",inhibition at 1 µM,ABL1; [1],43.2%
same,inhibition at 1 µM,ABL1; [2],50.7%
same,inhibition at 1 µM,ABL1; [3],47%
same,inhibition at 1 µM,ALK 4; [1],-6.24%
same,inhibition at 1 µM,ALK 4; [2],14.8%
same,inhibition at 1 µM,ALK 4; [3],4.25%
same,inhibition at 1 µM,BRAF; [1],-6.73%
same,inhibition at 1 µM,BRAF; [2],-23.9%
same,inhibition at 1 µM,BRAF; [3],-15.3%
same,inhibition at 1 µM,BRSK2; [1],0.46%
same,inhibition at 1 µM,BRSK2; [2],-0.94%
same,inhibition at 1 µM,BRSK2; [3],-0.24%
same,inhibition at 1 µM,CDK5/p35NCK; [1],31.2%
same,inhibition at 1 µM,CDK5/p35NCK; [2],31.2%
same,inhibition at 1 µM,CDK5/p35NCK; [3],31.2%
same,inhibition at 1 µM,CHK1; [1],-10.6%
same,inhibition at 1 µM,CHK1; [2],-13.6%
same,inhibition at 1 µM,CHK1; [3],-12.1%
same,inhibition at 1 µM,CK1α; [1],5.8%
same,inhibition at 1 µM,CK1α; [2],-5.89%
same,inhibition at 1 µM,CK1α; [3],-0.04%
same,inhibition at 1 µM,CLK1; [1],2.98%
same,inhibition at 1 µM,CLK1; [2],12.3%
same,inhibition at 1 µM,CLK1; [3],7.67%
same,inhibition at 1 µM,DDR1; read-out: % Inhibition (First measurement),99.4%
same,inhibition at 1 µM,DDR1; read-out: % Inhibition (Second measurement),99.1%
same,inhibition at 1 µM,DDR1; read-out: Average inhibition (%),99.3%
same,Selectivity of DDR1 inhibition in the kinase inhibition profile (in words),DDR1; kinase panel,can inhibit DDR1 with higher selectivity
same,inhibition at 1 µM,EPHB4; [1],3.8%
same,inhibition at 1 µM,EPHB4; [2],-8.27%
same,inhibition at 1 µM,EPHB4; [3],-2.24%
same,inhibition at 1 µM,Erk2; [1],20.2%
same,inhibition at 1 µM,Erk2; [2],19.3%
same,inhibition at 1 µM,Erk2; [3],19.8%
same,inhibition at 1 µM,HPK1; [1],23.9%
same,inhibition at 1 µM,HPK1; [2],24.7%
same,inhibition at 1 µM,HPK1; [3],24.3%
same,inhibition at 1 µM,IKKα; [1],-18%
same,inhibition at 1 µM,IKKα; [2],-12.9%
same,inhibition at 1 µM,IKKα; [3],-15.5%
same,inhibition at 1 µM,ITK; [1],-3.82%
same,inhibition at 1 µM,ITK; [2],-19.2%
same,inhibition at 1 µM,ITK; [3],-11.5%
same,inhibition at 1 µM,JNK1; [1],4.56%
same,inhibition at 1 µM,JNK1; [2],5.69%
same,inhibition at 1 µM,JNK1; [3],5.13%
same,inhibition at 1 µM,NEK1; [1],14.6%
same,inhibition at 1 µM,NEK1; [2],8.97%
same,inhibition at 1 µM,NEK1; [3],11.8%
same,inhibition at 1 µM,NEK2; [1],8.18%
same,inhibition at 1 µM,NEK2; [2],2.89%
same,inhibition at 1 µM,NEK2; [3],5.54%
same,inhibition at 1 µM,PDGFRα; [1],84.1%
same,inhibition at 1 µM,PDGFRα; [2],84.8%
same,inhibition at 1 µM,PDGFRα; [3],84.4%
same,inhibition at 1 µM,PIM1; [1],-3.17%
same,inhibition at 1 µM,PIM1; [2],-4.27%
same,inhibition at 1 µM,PIM1; [3],-3.72%
same,inhibition at 1 µM,SGK; [1],-8.79%
same,inhibition at 1 µM,SGK; [2],-6.61%
same,inhibition at 1 µM,SGK; [3],-7.7%
same,inhibition at 1 µM,TSSK1; [1],-15.1%
same,inhibition at 1 µM,TSSK1; [2],-3.43%
same,inhibition at 1 µM,TSSK1; [3],-9.28%

# Source: US20240300958A1, “COMPOUNDS AND THE USES AND PHARMACEUTICAL COMPOSITIONS THEREOF” (BEIJING YOUZHUJU NETWORK TECHNOLOGY CO. LTD., priority 2023, published 2024)
